In publication PMC4358979, “Structure-Based Virtual Screening and Discovery of New PPARδ/γ Dual Agonist and PPARδ and γ Agonists” (PLoS ONE, 2015):

Target: T1, PPARδ (Homo sapiens, UniProt Q03181)
T1 construct: gene PPARD; pcDNA3-PPARδ expressed in HeLa cells
T1 sequence (Q03181 1-441): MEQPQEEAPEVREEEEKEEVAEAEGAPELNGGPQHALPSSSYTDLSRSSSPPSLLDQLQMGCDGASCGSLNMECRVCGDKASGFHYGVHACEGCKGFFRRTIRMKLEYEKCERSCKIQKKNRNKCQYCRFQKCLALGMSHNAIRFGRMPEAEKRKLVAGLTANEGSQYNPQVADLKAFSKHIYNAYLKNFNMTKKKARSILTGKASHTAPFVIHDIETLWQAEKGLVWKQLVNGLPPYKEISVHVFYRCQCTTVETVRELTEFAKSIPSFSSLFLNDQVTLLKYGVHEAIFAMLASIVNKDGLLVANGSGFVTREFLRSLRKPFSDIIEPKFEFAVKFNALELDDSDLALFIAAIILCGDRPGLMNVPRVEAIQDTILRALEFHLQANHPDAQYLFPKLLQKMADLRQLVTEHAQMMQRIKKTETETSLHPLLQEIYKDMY
Assay: PPRE-luciferase transactivation assay in HeLa cells, single concentration ([…])
Assay type: cell-based
Conditions: read-out: PPRE-luciferase transactivation assay in HeLa cells, single concentration (10 μM)

Structure (SMILES): Cc1ccc(Cn2c(=N)n(CC(=O)O)c3ccccc32)cc1 [compound 5, [2-imino-3-(4-methylbenzyl)-2,3-dihydro-1H-benzimidazol-1-yl]acetic acid]
- fold induction at 10 µM: 6.4
